Assay results published in PMC11236979, “Iron-sulphur protein catalysed [4+2] cycloadditions in natural product biosynthesis” (Nature Communications, 2024).

Test system: T1, VtlG (P450)
T1 construct: recombinant from E. coli, purified; haem P450 monooxygenase
Assay: UPLC product quantification at […] nm, Michaelis-Menten fit
Format: biochemical, Streptomyces spiroverticillatus
Conditions: mono-hydroxylation of 4 to 6; 5 nM VtlG, commercial spinach Fd 0.1 mg/mL, spinach FNR 1 unit/mL, 1 mM NADPH; 50 mM Tris-HCl pH 7.5, 30 °C

- Km: 840 ± 260 nM
SMILES: CC1=CC=CC=CC(C)CNC(=O)CC(=O)C=CC=CCC(O)CC(O)C=CC=C1 (stereo not shown) [compound 4]
